Series [1] has as its system Caco-2 cells. In words: Cell proliferation assay (X-Celligence), Caco-2. In kind it is cell-based. The settings on record: Xcelligence, vs DMSO. As for the experimental part:
Cell proliferation was determined using the X-Celligence RTCA system (Roche). For real-time recording of SW480, Caco-2 cell proliferation, 5000 cells/well were seeded in 16 well E-plates (Roche). […] Cell indices were automatically recorded every 15 min. Relative velocities represent the change of the cell index over time. The sequences of the siRNAs (Stealth RNAi siRNAs; Life Technologies) used in the experiments have been previously described.

Series [2] addresses T1, KMT9a (Homo sapiens, UniProt Q9Y5N5).
T1 sequence (Q9Y5N5 1-214): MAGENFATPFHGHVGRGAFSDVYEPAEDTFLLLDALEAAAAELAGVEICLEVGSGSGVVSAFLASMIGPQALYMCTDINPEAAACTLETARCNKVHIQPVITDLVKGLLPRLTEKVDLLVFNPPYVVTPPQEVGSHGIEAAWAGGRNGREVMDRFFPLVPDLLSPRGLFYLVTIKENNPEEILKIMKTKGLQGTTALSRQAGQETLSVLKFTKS
T1 sequence (Q9UI30 1-125 partner): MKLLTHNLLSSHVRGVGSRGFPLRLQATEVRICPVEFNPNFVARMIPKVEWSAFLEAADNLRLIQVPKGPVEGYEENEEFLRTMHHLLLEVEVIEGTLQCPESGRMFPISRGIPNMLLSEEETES
In words: CETSA in Caco-2 cells, KMT9. The series is classed as cell-based. Also noted: of endogenous KMT9 upon treatment with; endogenous in cells; host or cells: Caco-2. Here is the method:
(§1) For whole cell CETSA, the cells were incubated with 10/15 μM of compound 7b/8/8-N for 18 h. Then, cells were washed with cell culture medium, detached from the surface using trypsin, washed with PBS and the number of cells was determined. Cell concentration was adjusted to 3.6 × 10^7 cells/mL using in PBS with Complete (w/o EDTA, Roche) protease inhibitor. Then, cells were frozen in liquid nitrogen and thawed at 25 °C three times, before being divided in 16 aliquots. Each aliquot was heated to a defined temperature between 40 and 70 °C in a PCR cycler (16 well gradient, 55 °C ± 15). After 3 min incubation, aliquots were snap frozen in liquid nitrogen and thawed at 25 °C. Cell lysates were then centrifuged at 20,000 × g , 4 °C for 20 min. Supernatant were mixed with 5× loading buffer, heated to 70 °C for 5 min and analyzed by Western blotting essentially as previously described. For the CETSA performed with cell lysates, cells were directly harvested and lysed as described above. […]
(§2) Figure S4. […] Representative Western blots (A) and quantification (B) showing no obvious shifting melting temperatures (ΔT m) of endogenous KMT5A upon treatment with compound 7b compared to DMSO. […]
(§3) Representative Western blots (C) and quantification (D) showing no shifting melting temperatures (ΔT m) of endogenous KMT5A upon treatment with compound 8 compared to DMSO. […]

Series [3] addresses T2, endogenous KMT9a (Homo sapiens, UniProt Q9Y5N5).
T2 construct: increased thermal stability of endogenous KMT9 in SW480 cell lysates; endogenous in cells; host or cells: SW480
T2 sequence (Q9Y5N5 1-214): T1 sequence (Q9Y5N5 1-214)
T2 sequence (Q9UI30 1-125 partner): T1 sequence (Q9UI30 1-125 partner)
Description: CETSA in intact SW480 cells, KMT9. The following applies: 18 h, vs DMSO. In kind it is cell-based. As for the experimental part:
For whole cell CETSA, the cells were incubated with 10/15 μM of compound 7b/8/8-N for 18 h. Then, cells were washed with cell culture medium, detached from the surface using trypsin, washed with PBS and the number of cells was determined. Cell concentration was adjusted to 3.6 × 10^7 cells/mL using in PBS with Complete (w/o EDTA, Roche) protease inhibitor. Then, cells were frozen in liquid nitrogen and thawed at 25 °C three times, before being divided in 16 aliquots. Each aliquot was heated to a defined temperature between 40 and 70 °C in a PCR cycler (16 well gradient, 55 °C ± 15). After 3 min incubation, aliquots were snap frozen in liquid nitrogen and thawed at 25 °C. Cell lysates were then centrifuged at 20,000 × g , 4 °C for 20 min. Supernatant were mixed with 5× loading buffer, heated to 70 °C for 5 min and analyzed by Western blotting essentially as previously described. For the CETSA performed with cell lysates, cells were directly harvested and lysed as described above. The lysates were then split and incubated either with DMSO or 10 μM compound 7b for 2 h. Then, lysates were aliquoted again into 16 samples each and treated as described for the whole cell CETSA.

Series [4] concerns the target T3, KMT5A (Homo sapiens, UniProt Q9NQR1).
T3 sequence (Q9NQR1 1-393): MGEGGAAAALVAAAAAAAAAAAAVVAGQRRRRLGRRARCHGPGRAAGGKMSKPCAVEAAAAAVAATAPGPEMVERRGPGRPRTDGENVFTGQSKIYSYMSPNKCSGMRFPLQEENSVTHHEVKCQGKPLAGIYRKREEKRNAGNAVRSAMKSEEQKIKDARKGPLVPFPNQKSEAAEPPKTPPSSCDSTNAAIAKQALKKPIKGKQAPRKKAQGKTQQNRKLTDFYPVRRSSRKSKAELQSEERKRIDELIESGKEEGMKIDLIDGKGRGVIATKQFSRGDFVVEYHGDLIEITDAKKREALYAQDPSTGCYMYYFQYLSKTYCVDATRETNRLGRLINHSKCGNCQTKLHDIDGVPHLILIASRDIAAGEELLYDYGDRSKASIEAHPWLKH
Description: CETSA in intact SW480 cells, KMT5A. In kind it is cell-based. Set-up: endogenous in cells; host or cells: SW480. Here is the method:
as §1, §2, §3

Series [5] relates to SW480 cells. Description: Cell proliferation assay (X-Celligence), SW480. The series is classed as cell-based. The settings on record: Xcelligence, vs DMSO. Here is the method: Cell proliferation was determined using the X-Celligence RTCA system (Roche). For real-time recording of SW480, Caco-2 cell proliferation, 5000 cells/well were seeded in 16 well E-plates (Roche). Cells were seeded in the presence of DMSO or compound 8/8-N or transfected with the indicated siRNAs in the presence of Dharmafect (Life Technologies) 24 h before seeding in E-plates. Cell indices were automatically recorded every 15 min. Relative velocities represent the change of the cell index over time. The sequences of the siRNAs (Stealth RNAi siRNAs; Life Technologies) used in the experiments have been previously described.

Series [6] relates to HepG2 cells. Description: Cell proliferation assay, HepG2. The series is classed as cell-based, human. The settings on record: vs DMSO.

For the compound `CCOC(=O)[C@@H](N)CCN(CCCNCCc1ccc(Oc2ccc(Cl)cc2)c(F)c1)C[C@H]1C[C@@H](n2ccc3c(NC)ncnc32)[C@H](O)[C@@H]1O` [compound 8, Ethyl (S)-2-amino-4-((3-((4-(4-chlorophenoxy)-3-fluorophenethyl)amino)propyl) (((1R,2R,3S,4R)-2,3-dihydroxy-4-(4-(methylamino)-7H-pyrrolo[2,3-d]pyrimidin-7-yl)cyclopentyl)methyl)amino)butanoate], the “Proliferation of Caco-2 cells” value in series [1] is on record as “strongly suppressed proliferation”. Besides, the ΔTm at 15 µM in series [2] was found to be 6.1 °C. Also, the thermal shift (ΔTm) at 10 µM in series [3] is 5 °C; in series [4] it was -0.6 °C. Further, in series [5], the “Proliferation of SW480 cells” value was “also found in SW480 tumor cell lines”. Also, the “Proliferation of HepG2 cells” value in series [6] is reported as “did not affect cell proliferation”.
